The text below walks through data of ChEMBL document CHEMBL4665834 (J Med Chem, 2020).

pIC50: −log10 of the molar value.

Data set [1] is filed under the species Homo sapiens. Kind of data set: Selectivity ratio of IC50 for displacement of [3H]prostaglandin E2 from full-length recombinant human EP1 receptor expressed in HEK293 cell membranes to IC50 for displacement of [3H]PGF2alpha from full-length recombinant human FP receptor expressed in HEK293 cell membranes. For orientation: Displacement assays read how much labelled ligand stays bound in the presence of the test substance.

For data set [2], the species on record is Homo sapiens. Put plainly: Selectivity ratio of IC50 for displacement of [3H]prostaglandin E2 from full-length recombinant human EP2 receptor expressed in HEK293 cell membranes to IC50 for displacement of [3H]PGF2alpha from full-length recombinant human FP receptor expressed in HEK293 cell membranes.
Data set [3] in a line: Lipophilicity, log D of compound at pH 7.5 by HPLC analysis. The following applies: buffer.
The species entered for data set [4] is Homo sapiens. Put plainly: Selectivity ratio of IC50 for displacement of [3H]prostaglandin E2 from full-length recombinant human EP4 receptor expressed in Chem-1 cell membranes to IC50 for displacement of [3H]PGF2alpha from full-length recombinant human FP receptor expressed in HEK293 cell membranes.
The species named for data set [5] is Homo sapiens. Put plainly: Selectivity ratio of IC50 for displacement of [3H]PGD2 from full-length recombinant human IP receptor expressed in HEK293 cell membranes to IC50 for displacement of [3H]PGF2alpha from full-length recombinant human FP receptor expressed in HEK293 cell membranes.
For data set [6], the species on record is Homo sapiens. Put plainly: Selectivity ratio of IC50 for displacement of [3H]prostaglandin E2 from full-length recombinant human EP3 receptor expressed in HEK293 cell membranes to IC50 for displacement of [3H]PGF2alpha from full-length recombinant human FP receptor expressed in HEK293 cell membranes.
In the next data set the target is Cytochrome P450 3A4 (Homo sapiens, UniProt P08684). Put plainly: Inhibition of CYP3A4 in human liver microsomes using midazolam as substrate incubated for 10 mins in presence of NADPH generating system by LC-MS/MS analysis. Background: Microsomes from liver hold many membrane-bound enzymes, among them those of drug oxidation.
For data set [7], the species on record is Homo sapiens. Put plainly: Selectivity ratio of IC50 for displacement of [3H]PGD2 from full-length recombinant human DP1 receptor expressed in Chem-1 cell membranes to IC50 for displacement of [3H]PGF2alpha from full-length recombinant human FP receptor expressed in HEK293 cell membranes.
The nature of data set [8]: Clearance in Wistar rat at 0.3 to 1 mg/kg, iv administered as bolus dose or 15 mins infusion by LC-MS/MS analysis. The format is ADME, organism-based. The following applies: in vivo, dose 0.3-1 mg/kg; for clearance: Wistar; for CL: 0.25 h.
Data set [9] addresses Prostaglandin F2-alpha receptor (Homo sapiens, UniProt P43088). Put plainly: Antagonist activity at human FPR expressed in human Chem-1 cells assessed as inhibition of PGF2alpha-induced calcium flux preincubated for 10 mins followed by PGF2alpha stimulation and measured for 120 secs by fluo-8 AM dye based fluorescence assay. The format is functional, cell-based. On the technique in general: Calcium assays in cells follow changes in intracellular calcium, usually with a dye or a luminescent sensor.

Chain of Cytochrome P450 3A4 (P08684 whole entry): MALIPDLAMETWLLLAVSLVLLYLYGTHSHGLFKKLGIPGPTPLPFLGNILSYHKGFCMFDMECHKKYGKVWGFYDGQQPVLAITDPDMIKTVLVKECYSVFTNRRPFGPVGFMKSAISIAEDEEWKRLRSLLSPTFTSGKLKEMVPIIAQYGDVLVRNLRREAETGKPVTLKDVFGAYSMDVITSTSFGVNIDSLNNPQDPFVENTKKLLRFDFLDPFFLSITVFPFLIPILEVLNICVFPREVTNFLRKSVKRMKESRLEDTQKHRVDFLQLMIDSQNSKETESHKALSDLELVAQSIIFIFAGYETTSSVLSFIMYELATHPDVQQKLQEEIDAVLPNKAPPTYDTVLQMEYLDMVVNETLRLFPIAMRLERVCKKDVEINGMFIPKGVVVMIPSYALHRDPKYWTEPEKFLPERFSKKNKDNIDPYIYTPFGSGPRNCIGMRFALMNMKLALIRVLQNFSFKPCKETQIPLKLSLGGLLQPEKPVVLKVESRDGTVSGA
Chain of Prostaglandin F2-alpha receptor (P43088 whole entry): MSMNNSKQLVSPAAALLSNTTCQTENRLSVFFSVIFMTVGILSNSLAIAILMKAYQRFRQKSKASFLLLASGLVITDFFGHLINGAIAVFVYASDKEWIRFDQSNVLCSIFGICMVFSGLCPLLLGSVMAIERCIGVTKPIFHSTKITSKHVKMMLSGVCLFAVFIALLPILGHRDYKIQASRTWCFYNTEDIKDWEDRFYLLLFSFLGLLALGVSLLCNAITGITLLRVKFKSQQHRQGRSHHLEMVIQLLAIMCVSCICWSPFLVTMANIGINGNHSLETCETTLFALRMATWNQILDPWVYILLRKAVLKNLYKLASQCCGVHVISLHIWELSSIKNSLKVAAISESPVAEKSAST

By logD is commonly meant lipophilicity at a set pH, counting ionised and neutral species. Read a high logD as a more lipophilic compound. Broadly, the pIC50 is the negative decadic logarithm of the IC50, by convention in mol/L. As to `Cc1c(C(=O)Nc2ccc(C(=O)O)cc2F)c2cc(Br)ccc2[n+]([O-])c1-c1ccccc1`, the Ratio IC50 in the data set filed under Homo sapiens [1] is greater than 91; in the data set filed under Homo sapiens [2], greater than 91; in the data set listed under Homo sapiens [4], 53; in the data set filed under Homo sapiens [5], greater than 91; in the data set listed under Homo sapiens [6] it was greater than 91; in the data set listed under Homo sapiens [7], greater than 91. The molecule further showed a log distribution coefficient (logD) in [3] of 1.4. In addition, the negative-log IC50 (pIC50) on Cytochrome P450 3A4 was less than 4.70.
As for `O=C(O)c1ccc(NC(=O)c2c(Cl)c(-c3ccccc3)nc3ccc(Br)cc23)c(F)c1`, the Ratio IC50 in the data set listed under Homo sapiens [1] is greater than 38; in the data set listed under Homo sapiens [2], greater than 38; in the data set filed under Homo sapiens [4], 14; in the data set filed under Homo sapiens [5], greater than 38; in the data set listed under Homo sapiens [6], greater than 38; in the data set filed under Homo sapiens [7], greater than 38. The same molecule returned a log distribution coefficient (logD) in data set [3] of 2.1.
The term clearance denotes a measure of how efficiently the substance is removed, as volume per time. The molecule `Cc1c(N2CCCC2)nc2ccc(Br)cc2c1C(=O)NC[C@@H](CCC(=O)O)c1ccccc1Cl` showed a clearance in data set [8] of 20 mL/min/kg. For the same molecule, in data set [3], the logD is 2.3. At Cytochrome P450 3A4, the pIC50 is less than 4.70.
With `Cc1c(-c2ccccc2)nc2ccc(Cl)cc2c1C(=O)Nc1ccc(C(=O)O)cc1F`, the logD in [3] was 1.9. Moreover, the Ratio IC50 in the data set filed under Homo sapiens [4] stood at 17. Further, the pIC50 at Cytochrome P450 3A4 was less than 4.70.
Turning to `Cc1c(-c2ccccc2)nc2ccc(Br)cc2c1C(=O)N(C)CCc1ccccn1`, the pIC50 in [9] is 4.82.
`Cc1c(-c2ccccc2)nc2ccc(Br)cc2c1CNc1ccc(C(=O)O)cc1F` showed a clearance in [8] of 11.7 mL/min/kg. Moreover, the pIC50 in data set [9] is 7.60.
Take `O=C(O)c1ccc(NC(=O)c2c(C3CC3)c(-c3ccccc3)nc3ccc(Br)cc23)c(F)c1`: the logD in [3] is 2.1. In the data set listed under Homo sapiens [4], the Ratio IC50 came out at 8.8.
`Cc1c(-c2ccccc2)cc2ccc(Br)cc2c1C(=O)Nc1ccc(C(=O)O)cc1F` gave a clearance in [8] of 10 mL/min/kg. Further, the pIC50 in [9] is 7.89.
Regarding `Cc1c(-c2ccccc2)nc2ccc(Br)cc2c1COc1ccc(C(=O)O)cc1F`, the clearance in data set [8] is 20 mL/min/kg. This molecule also gave a log distribution coefficient (logD) in data set [3] of 2.2. In addition, the negative logarithm of the IC50 (pIC50) in data set [9] was 6.60; at Cytochrome P450 3A4, less than 4.70. Besides, the Ratio IC50 in the data set filed under Homo sapiens [4] amounted to 20.
Consider `Cc1c(-c2ccccc2)nc2ccc(Br)cc2c1C(=O)Nc1ccc(C(=O)O)cc1F`, for which the Ratio IC50 is greater than 76 in the data set filed under Homo sapiens [1]; greater than 76 in the data set filed under Homo sapiens [2]; 16 in the data set filed under Homo sapiens [4]; greater than 76 in the data set filed under Homo sapiens [5]; greater than 76 in the data set filed under Homo sapiens [6]; greater than 76 in the data set listed under Homo sapiens [7].
In turn, `Cc1c(N2CC(F)(F)C2)nc2ccc(Br)cc2c1C(=O)NCC(CCC(=O)O)c1ccccc1Cl` (racemic) yielded a logD in [3] of 2.6. Further, the Ratio IC50 in the data set listed under Homo sapiens [4] is greater than 220. In addition, the pIC50 on Cytochrome P450 3A4 was less than 4.70.
As to `COc1ccc(C(CNC(=O)c2c(C)c(-c3ccccc3)nc3ccc(Br)cc23)CC(=O)O)cc1` (racemic), the log distribution coefficient (logD) in data set [3] was 1.9. Also, the pIC50 was 5.96 in data set [9] and less than 4.70 on Cytochrome P450 3A4. The Ratio IC50 in the data set listed under Homo sapiens [4] was greater than 63.
The molecule `COc1cccc(C(CNC(=O)c2c(C)c(-c3ccccc3)nc3ccc(Br)cc23)CC(=O)O)c1` (racemic) registered a log distribution coefficient (logD) in [3] of 2. At Cytochrome P450 3A4, the pIC50 was less than 4.70.
Take `Cc1c(-c2ccccc2)nc2ccc(Br)cc2c1C(=O)NC(C)Cc1ccccn1` (racemic): the pIC50 in data set [9] was 6.30.
The molecule `CCC1CCCN(c2nc3ccc(Br)cc3c(C(=O)NCC(CCC(=O)O)c3ccccc3Cl)c2C)C1` (single isomer, unassigned; 52) [listing 1 of 2 here] showed a CL in [8] of 48.3 mL/min/kg. In data set [3], this molecule registered a pH-dependent lipophilicity (logD) of 3.3. The negative-log IC50 (pIC50) in [9] was 9.28; at Cytochrome P450 3A4, 5.30.
On to `CCC1CCCN(c2nc3ccc(Br)cc3c(C(=O)NCC(CCC(=O)O)c3ccccc3Cl)c2C)C1` (single isomer, unassigned; 52) [listing 2 of 2 here], for which the Ratio IC50 in the data set filed under Homo sapiens [1], in the data set listed under Homo sapiens [2], in the data set listed under Homo sapiens [4], in the data set listed under Homo sapiens [5], in the data set filed under Homo sapiens [6] and in the data set listed under Homo sapiens [7] was greater than 180 each time.
For the molecule `CCC1CCCN(c2nc3ccc(Br)cc3c(C(=O)NCC(CCC(=O)O)c3ccccc3Cl)c2C)C1` (single isomer, unassigned; 53) [listing 1 of 2 here], the CL in data set [8] came out at 21.7 mL/min/kg. Besides, the negative-log IC50 (pIC50) on Cytochrome P450 3A4 was 5.00.
Turning to `CCC1CCCN(c2nc3ccc(Br)cc3c(C(=O)NCC(CCC(=O)O)c3ccccc3Cl)c2C)C1` (single isomer, unassigned; 53) [listing 2 of 2 here], the Ratio IC50 in the data set listed under Homo sapiens [1], in the data set filed under Homo sapiens [2], in the data set filed under Homo sapiens [4], in the data set listed under Homo sapiens [5], in the data set listed under Homo sapiens [6] and in the data set filed under Homo sapiens [7] was greater than 580 in each case.
With `CCC1CCCN(c2nc3ccc(Br)cc3c(C(=O)NCC(CCC(=O)O)c3ccccc3Cl)c2C)C1` (single isomer, unassigned; 54) [listing 1 of 2 here], the pIC50 at Cytochrome P450 3A4 is 5.70.
On to `CCC1CCCN(c2nc3ccc(Br)cc3c(C(=O)NCC(CCC(=O)O)c3ccccc3Cl)c2C)C1` (single isomer, unassigned; 54) [listing 2 of 2 here], for which the Ratio IC50 in the data set listed under Homo sapiens [1], in the data set filed under Homo sapiens [2], in the data set listed under Homo sapiens [4], in the data set filed under Homo sapiens [5], in the data set listed under Homo sapiens [6] and in the data set listed under Homo sapiens [7] was greater than 180 throughout.
Turning to `CCC1CCCN(c2nc3ccc(Br)cc3c(C(=O)NCC(CCC(=O)O)c3ccccc3Cl)c2C)C1` (single isomer, unassigned; 55) [listing 1 of 2 here], the figures for the pIC50 (in data set [9]; on Cytochrome P450 3A4) were 8.12 and 5.30, respectively.
Take `CCC1CCCN(c2nc3ccc(Br)cc3c(C(=O)NCC(CCC(=O)O)c3ccccc3Cl)c2C)C1` (single isomer, unassigned; 55) [listing 2 of 2 here]: the Ratio IC50 in the data set listed under Homo sapiens [1], in the data set listed under Homo sapiens [2], in the data set filed under Homo sapiens [4], in the data set listed under Homo sapiens [5], in the data set listed under Homo sapiens [6] and in the data set filed under Homo sapiens [7] was greater than 300 each time.
Molecule `Cc1c(-c2ccccc2)nc2ccc(Br)cc2c1C(=O)NCC(CCC(=O)O)c1c(F)ccc(F)c1Cl` (single isomer, unassigned; (+)) returned a pH-dependent lipophilicity (logD) in data set [3] of 2.2. Also, the pIC50 on Cytochrome P450 3A4 is less than 4.70.
The corresponding values for `Cc1c(-c2ccccc2)nc2ccc(Br)cc2c1C(=O)NCC(CCCC(=O)O)c1ccccc1Cl` (single isomer, unassigned; (+)) are 2.3 and 4.70.
Molecule `COc1ccccc1C(CNC(=O)c1c(C)c(-c2ccccc2)nc2ccc(Br)cc12)CC(=O)O` (single isomer, unassigned; (+)) gave a clearance in data set [8] of 46.7 mL/min/kg. This molecule registered a logD in [3] of 2. Besides, the negative-log IC50 (pIC50) on Cytochrome P450 3A4 was less than 4.70.
As for `COc1ccccc1C(C)CNC(=O)c1c(C)c(-c2ccccc2)nc2ccc(Br)cc12` (single isomer, unassigned; (+)), the negative-log IC50 (pIC50) in data set [9] was 6.60.
In [8], `Cc1c(N2CCCCCC2)nc2ccc(Br)cc2c1C(=O)NCC(CCC(=O)O)c1ccccc1Cl` (single isomer, unassigned; (+)) showed a clearance of 21.7 mL/min/kg.
For the molecule `Cc1c(-c2ccccc2)nc2ccc(Br)cc2c1C(=O)NCC(CCC(=O)O)c1ccccc1Cl` (single isomer, unassigned; (+)), the Ratio IC50 in the data set filed under Homo sapiens [1], in the data set listed under Homo sapiens [2], in the data set listed under Homo sapiens [4], in the data set filed under Homo sapiens [5], in the data set listed under Homo sapiens [6] and in the data set listed under Homo sapiens [7] was greater than 6300 each time.
For `Cc1c(-c2ccccc2)nc2ccc(Br)cc2c1C(=O)NCC(CCC(=O)O)c1ccccc1Cl` (single isomer, unassigned; (-)) [listing 1 of 2 here], in [8], the CL is 50 mL/min/kg.
In [8], `Cc1c(-c2ccccc2)nc2ccc(Br)cc2c1C(=O)NCC(CCC(=O)O)c1c(F)ccc(F)c1Cl` (single isomer, unassigned; (-)) showed a clearance of 43.3 mL/min/kg. The negative-log IC50 (pIC50) on Cytochrome P450 3A4 was 5.30.
For `Cc1c(N2CCCCC2)nc2ccc(Br)cc2c1C(=O)NCC(CCC(=O)O)c1c(F)ccc(F)c1Cl` (single isomer, unassigned; (-)), the clearance in data set [8] is 38.3 mL/min/kg.
As for `Cc1c(N2CCCCC2)nc2ccc(Br)cc2c1C(=O)NCC(CCC(=O)O)c1ccccc1Cl` (single isomer, unassigned; (-)), in data set [8], the CL came to 25 mL/min/kg.
As to `Cc1c(-c2ccccc2)nc2ccc(Br)cc2c1C(=O)NCC(CCC(=O)O)c1ccccc1Cl` (single isomer, unassigned; (-)) [listing 2 of 2 here], the Ratio IC50 in the data set listed under Homo sapiens [1], in the data set filed under Homo sapiens [2], in the data set listed under Homo sapiens [4], in the data set listed under Homo sapiens [5], in the data set filed under Homo sapiens [6] and in the data set listed under Homo sapiens [7] was greater than 8200 each time.
Molecule `Cc1c(-c2ccccc2)nc2ccc(Br)cc2c1C(=O)NCC(CC(=O)O)c1ccccc1Cl` (stereo in doubt; 34) came in with a CL in data set [8] of 18.3 mL/min/kg. The pIC50 at Cytochrome P450 3A4 is 4.89.
Molecule `Cc1c(N2CCCCC2)nc2ccc(Br)cc2c1C(=O)NCC(CCC(=O)O)c1ccccc1Cl` (stereo in doubt; 48) gave a clearance in [8] of 16.7 mL/min/kg.
